What all share (assay): CDK9 cell activity assay, cell growth inhibition (CellTiter-Glo, 72 hours)
Common to all, as to type: cell-based

Test [1] has as its system A375. The following applies: Homo sapiens, A-375. How it is done: (§1) In the CDK9 cell activity assay, the cell line MV-4-11 was cultured in IMDM culture medium containing 10% fetal bovine serum (containing 100 U/mL penicillin and 0.1 g/L streptomycin); the cell line HCC1187 was cultured in RPMI-1640 culture medium containing 10% fetal bovine serum (containing 100 U/mL penicillin and 0.1 g/L streptomycin); the cell line Mia Paca-2 was cultured in DMEM containing 10% fetal bovine serum and 2.5% horse serum (containing 100 U/mL penicillin and 0.1 g/L streptomycin); and the cell line A375 was cultured in RPMI-1640 culture medium containing 10% fetal bovine serum (containing 100 U/mL penicillin and 0.1 g/L streptomycin). All cells were cultured in an incubator with saturated humidity at 37°C with 5% CO2.
(§2) When MV-4-11 cells, HCC1187 cells, Mia Paca-2 cells, and A375 cells grew to 80%-90% confluence, they were digested with trypsin, resuspended, counted, and diluted to a certain cell density with complete medium. 100 µL of the cells was plated into each well of a 96-well plate, and the complete medium was used as a background control. The cells were cultured overnight in an incubator with saturated humidity at 37°C with 5% CO2. The compounds were diluted with DMSO to a final concentration of 200×. 3 µL of the stock solution of the above compounds in DMSO was added to 197 µL of complete medium, and 50 µL of the compound diluted in the medium was added to the cells of each well. The cells were cultured in an incubator with saturated humidity at 37°C with 5% CO2 for 72 hours. After 72 hours, the culture plates were placed at room temperature for equilibrium. 40 µL of CellTiter-Glo® reagent was added to each well. The plate was mixed evenly on a shaker for 2 minutes to lyse the cells then incubated at room temperature for 60 minutes to stabilize the chemiluminescent signal, and the chemiluminescence was read using a PE EnVision microplate reader. The inhibition rate on cell growth was calculated as % Inh = (DMSO well - compound treatment well) / (DMSO well - background well) x 100, and fitting was performed using GraphPad Prism 5 to obtain the IC50 values against cell growth.

Test [2] deals with HCC1187. The following applies: Homo sapiens. How it is done:
as §1, §2

Test [3] relates to MV-4-11. The following applies: Homo sapiens, MV4-11. As to the method: as §1, §2
Test [4] has as its system Mia-Paca-2. The following applies: Homo sapiens. How it is done:
as §1, §2

In the case of `Clc1cnc2nc1NCCCCCNCc1cccc(c1)N2` [Compound 8, 1^5-chloro-2,5,11-triaza-1(2,4)-pyrimidina-3(1,3)-benzenacyclodecaphane], the IC50 in test [1] is < 250 nM; in test [2], 250 to 1000 nM; in test [3] it was < 250 nM; in test [4], < 250 nM.

The record behind these values is patent EP4610262A1, “MACROCYCLIC COMPOUND AS CDK9 INHIBITOR AND USE THEREOF” (Artivila Biopharma, priority 2022, dated 2024).
